How the values were obtained:
PHBPU [1] = assay: Pre-emergence herbicidal action against PHBPU; format: in vivo, Pharbitis purpurea; conditions: Ipomoea purpurea, 504 h, dosage 80 g/ha
In short: (§1)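 Pre-emergence soil-surface spray of formulated compound (WP or EC; 600 to 800 l/ha; 0.2% wetting agent) over seeds sown in sandy loam. After 3 weeks under greenhouse conditions, damage is estimated visually in percent against untreated plants.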

ECHCG [2] = assay: Post-emergence herbicidal action against ECHCG; format: in vivo, Echinochloa crus-galli; conditions: Echinochloa crus-galli, 504 h
In short: (§2)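 Spray, one-leaf stage: WP or EC compound in water, 600–800 l/ha, 0.2% wetting agent. Plants held about 3 weeks in the greenhouse, then visually rated in percent of kill compared with untreated controls.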

SETVI [3] = assay: Post-emergence herbicidal action against SETVI; format: in vivo, Setaria viridis; conditions: Setaria viridis, 504 h; for pest or weed control at 20 g/ha: dosage 20 g/ha
In short: as §2

AVEFA = assay: Pre-emergence herbicidal action against AVEFA; format: in vivo, Avena fatua; conditions: Avena fatua, 504 h; 80 g/ha, pre-emergence
In short: as §1

VIOTR [4] = assay: Post-emergence herbicidal action against VIOTR; format: in vivo, Viola tricolor; conditions: Viola tricolor, 504 h
In short: as §2

ABUTH [5] = assay: Post-emergence herbicidal action against ABUTH; format: in vivo, Abutilon theophrasti; conditions: Abutilon theophrasti, 504 h, visual assessment about 3 weeks after treatment vs untreated controls; for pest or weed control at 5 g/ha: dosage 5 g/ha; for pest or weed control at 20 g/ha: dosage 20 g/ha
In short: as §2

ALOMY [6] = assay: Pre-emergence herbicidal action against ALOMY; format: in vivo, Alopecurus myosuroides; conditions: Alopecurus myosuroides, 504 h, pre-emergence; for pest or weed control at 80 g/ha: scored visually after 3 weeks vs untreated controls (100% = plants have died, 0% = like control plants)
In short: as §1

MATIN [7] = assay: Pre-emergence herbicidal action against MATIN; format: in vivo, Matricaria inodora; conditions: Tripleurospermum inodorum, 504 h; for pest or weed control at 20 g/ha: dosage 20 g/ha; for pest or weed control at 80 g/ha: dosage 80 g/ha
In short: as §1

SETVI [8] = assay: Pre-emergence herbicidal action against SETVI; format: in vivo, Setaria viridis; conditions: Setaria viridis, 504 h; for pest or weed control at 80 g/ha: dosage 80 g/ha
In short: as §1

AMARE [9] = assay: Post-emergence herbicidal action against AMARE; format: in vivo, Amaranthus retroflexus; conditions: Amaranthus retroflexus, 504 h, 20 g/ha, visual assessment about 3 weeks after treatment, 100% = plants have died, 0% = like control plants
In short: as §2

VERPE [10] = assay: Post-emergence herbicidal action against VERPE; format: in vivo, Veronica persica; conditions: Veronica persica, 504 h
In short: as §2

VERPE [11] = assay: Pre-emergence herbicidal action against VERPE; format: in vivo, Veronica persica; conditions: Veronica persica, 504 h, dosage 80 g/ha
In short: as §1

POLCO = assay: Pre-emergence herbicidal action against POLCO; format: in vivo, Polygonum convolvulus; conditions: Fallopia convolvulus, 504 h, dosage 80 g/ha
In short: as §1

ALOMY [12] = assay: Post-emergence herbicidal action against ALOMY; format: in vivo, Alopecurus myosuroides; conditions: Alopecurus myosuroides, 504 h, visual assessment about 3 weeks after treatment vs untreated controls; for pest or weed control at 20 g/ha: dosage 20 g/ha
In short: as §2

PHBPU [13] = assay: Post-emergence herbicidal action against PHBPU; format: in vivo, Pharbitis purpurea; conditions: Ipomoea purpurea, 504 h, dosage 20 g/ha
In short: as §2

ABUTH [14] = assay: Pre-emergence herbicidal action against ABUTH; format: in vivo, Abutilon theophrasti; conditions: Abutilon theophrasti, 504 h; for pest or weed control at 80 g/ha: scored visually after 3 weeks vs untreated controls (100% = plants have died, 0% = like control plants); for pest or weed control at 20 g/ha: dosage 20 g/ha, scored visually after 3 weeks vs untreated controls, 100% = plants have died, 0% = like control plants, read-out: Pre-emergence action against ABUTH (herbicidal activity in percent)
In short: as §1

VIOTR [15] = assay: Pre-emergence herbicidal action against VIOTR; format: in vivo, Viola tricolor; conditions: Viola tricolor, 504 h; for pest or weed control at 80 g/ha: dosage 80 g/ha
In short: as §1

MATIN [16] = assay: Post-emergence herbicidal action against MATIN; format: in vivo, Matricaria inodora; conditions: Tripleurospermum inodorum, 504 h, dosage 20 g/ha
In short: as §2

ECHCG [17] = assay: Pre-emergence herbicidal action against ECHCG; format: in vivo, Echinochloa crus-galli; conditions: Echinochloa crus-galli, 504 h
In short: as §1

AMARE [18] = assay: Pre-emergence herbicidal action against AMARE; format: in vivo, Amaranthus retroflexus; conditions: Amaranthus retroflexus, 504 h, scored visually after 3 weeks vs untreated controls, 100% = plants have died, 0% = like control plants
In short: as §1

Compound | pest or weed control at 80 g/ha (PHBPU [1]) | pest or weed control at 20 g/ha (SETVI [3]) | pest or weed control at 80 g/ha (AVEFA) | pest or weed control at 5 g/ha (VIOTR [4]) | pest or weed control at 20 g/ha (VIOTR [4]) | pest or weed control at 5 g/ha (ABUTH [5]) | pest or weed control at 20 g/ha (ABUTH [5]) | pest or weed control at 80 g/ha (ALOMY [6]) | pest or weed control at 20 g/ha (MATIN [7]) | pest or weed control at 80 g/ha (MATIN [7]) | pest or weed control at 80 g/ha (SETVI [8]) | pest or weed control at 20 g/ha (AMARE [9]) | pest or weed control at 20 g/ha (VERPE [10]) | pest or weed control at 80 g/ha (VERPE [11]) | pest or weed control at 80 g/ha (POLCO) | pest or weed control at 20 g/ha (ALOMY [12]) | pest or weed control at 80 g/ha (ABUTH [14]) | pest or weed control at 20 g/ha (ABUTH [14]) | pest or weed control at 80 g/ha (VIOTR [15]) | pest or weed control at 20 g/ha (MATIN [16]) | other results
CCCNC(=O)c1c(C(F)F)ccc(C(=O)Nc2nnnn2CC)c1C [Example 2-344] | 90% | 80% | 80% | 90% | 100% | 90% | 90% | 100% | 100% | 100% | 80% | 100% | 80% | 80% | 90% | 90% | 100% | 100% | 100% | 80% | pest or weed control at 5 g/ha (ECHCG [2]; dosage 5 g/ha): 80%; pest or weed control at 20 g/ha (ECHCG [2]; dosage 20 g/ha): 90%; pest or weed control at 20 g/ha (ALOMY [6]; 20 g/ha, scored visually after 3 weeks, 100% = plants have died, 0% = like control plants): 80%; pest or weed control at 5 g/ha (ALOMY [12]; dosage 5 g/ha): 80%; pest or weed control at 20 g/ha (PHBPU [13]): 80%; pest or weed control at 20 g/ha (VIOTR [15]; dosage 20 g/ha): 80%; pest or weed control at 20 g/ha (ECHCG [17]; 20 g/ha): 90%; pest or weed control at 80 g/ha (ECHCG [17]): 100%; pest or weed control at 20 g/ha (AMARE [18]): 100%; pest or weed control at 80 g/ha (AMARE [18]): 100%
CSc1c(C(=O)Nc2nnnn2C)ccc(C(F)F)c1C(=O)NC1CC1 [Example 1-89] | 80% | 90% | 90% | 90% | 90% | 90% | 90% | 90% | 90% | 100% | 100% | 100% | 90% | 90% | 80% | 90% | 100% | 90% | 100% | 80% | pest or weed control at 5 g/ha (SETVI [3]; dosage 5 g/ha): 90%; pest or weed control at 20 g/ha (SETVI [8]; dosage 20 g/ha): 90%; pest or weed control at 5 g/ha (VERPE [10]; 5 g/ha): 90%; pest or weed control at 80 g/ha (ECHCG [17]): 100%; pest or weed control at 20 g/ha (AMARE [18]): 100%; pest or weed control at 80 g/ha (AMARE [18]): 100%

Reference: patent publication US12655116B2, “Substituted isophthalic acid diamides” (Bayer Aktiengesellschaft, priority 2020, dated 2026)
